Data published in US9718790B2, “Triazine derivative and pharmaceutical composition having an analgesic activity comprising the same” (SHIONOGI & CO., LTD., priority 2010, dated 2017).

These molecules were tested against human P2X3 receptor (Homo sapiens (Human), UniProt P56373) (assay: Evaluation of human P2X3 receptor inhibitory activity (Fluo-3 calcium fluorescence, FDSS 3000, ATP stimulation)). Details: C6BU-1 cells stably expressing human P2X3 receptor.
Assay type: cell-based
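Further: stimulus was 50 nM ATP with fluorescence followed for 3 min, and the response per well was peak post-ATP fluorescence divided by the reading at measurement start.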

human P2X3 receptor, sequence (P56373 whole entry): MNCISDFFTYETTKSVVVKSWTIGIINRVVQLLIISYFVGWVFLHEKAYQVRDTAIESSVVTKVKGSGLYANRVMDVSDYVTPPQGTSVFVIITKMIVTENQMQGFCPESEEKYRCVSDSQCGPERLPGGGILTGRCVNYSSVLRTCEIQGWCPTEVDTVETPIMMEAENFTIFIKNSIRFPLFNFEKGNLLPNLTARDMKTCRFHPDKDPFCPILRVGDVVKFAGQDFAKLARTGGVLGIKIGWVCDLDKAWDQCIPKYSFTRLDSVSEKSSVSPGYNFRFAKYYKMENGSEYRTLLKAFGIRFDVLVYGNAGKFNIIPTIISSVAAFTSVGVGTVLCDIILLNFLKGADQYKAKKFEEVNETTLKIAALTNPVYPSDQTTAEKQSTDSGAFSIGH

In order of rising IC50:
1. COC(=O)c1ccc(Cn2c(=O)[nH]/c(=N\c3ccc(OC(C)C)c(C)c3)n(Cc3ccc(Cl)cc3)c2=O)o1 [Compound I-0700]  6 nM
2. Cc1ccc(Cn2c(=O)n([C@@H](C)[C@@H](C)C(=O)O)c(=O)[nH]/c2=N\c2ccc(CC(C)C)c(Cl)c2)cc1 [Compound I-1443]  6 nM
3. CCn1c(=O)[nH]/c(=N\c2ccc(Oc3ccnc(C(=O)OC)c3)cc2)n(CC2CCC3(CC2)CC3)c1=O [Compound I-2174]  6 nM
4. CC(C)Oc1ccc(/N=c2\[nH]c(=O)n(C(C)(C)C(=O)NC(CO)CO)c(=O)n2Cc2ccc(Cl)cc2)cc1Cl [Compound I-0687]  12 nM
5. CCn1c(=O)[nH]/c(=N\c2ccc(Oc3cc(C(=O)OC)nc(Cl)n3)cc2)n(Cc2ccc(Cl)cc2)c1=O [Compound I-2210]  14 nM
6. CCCc1ccc(/N=c2\[nH]c(=O)n(C[C@H](C)C(=O)OC)c(=O)n2Cc2ccc(C)cc2)cc1Cl [Compound I-1277]  15 nM
7. O=c1[nH]/c(=N\c2ccc3nc(C4CC4)sc3c2)n(Cc2ccc(Cl)cc2)c(=O)n1CCO [Compound I-2026]  22 nM
8. CCOc1ccc(/N=c2\[nH]c(=O)n(C[C@H](C)C(=O)O)c(=O)n2Cc2ccc(C)cc2)cc1Cl [Compound I-0682]  23 nM
9. O=C(O)c1cc(Oc2ccc(/N=c3\[nH]c(=O)n(CCO)c(=O)n3Cc3ccc(Cl)cc3)cc2)no1 [Compound I-2117]  23 nM
10. Cc1cc(/N=c2\[nH]c(=O)n(C[C@H](C)CC(=O)O)c(=O)n2Cc2ccc(Cl)cc2)ccc1OC(C)C [Compound I-0765]  40 nM
11. CCn1c(=O)[nH]/c(=N\c2ccc(Oc3ccc(C)c(C(=O)O)c3)cc2)n(Cc2ccc(Cl)cc2)c1=O [Compound I-2017]  41 nM
12. Cc1ccc(Cn2c(=O)n([C@@H](C)[C@@H](C)C(=O)O)c(=O)[nH]/c2=N\c2ccc(N3CCCCC3)cc2)cc1 [Compound I-1394]  44 nM
13. CCn1c(=O)[nH]/c(=N\c2ccc(Oc3cncc(C(=O)OC)c3)cc2)n(Cc2ccc(F)cc2)c1=O [Compound I-2111]  44 nM
14. O=C(O)CCn1c(=O)[nH]/c(=N\c2ccc(OC3CCC3)c(Cl)c2)n(Cc2ccc(Cl)cc2)c1=O [Compound I-1333]  52 nM
15. CC(C)Oc1ccc(/N=c2\[nH]c(=O)n(C(C)(C)C(=O)O)c(=O)n2Cc2ccc(Cl)cc2)cc1Cl [Compound I-0651]  97 nM
16. COC(=O)[C@@H](C)Cn1c(=O)[nH]/c(=N\c2ccc3c(c2)CCC3)n(Cc2ccc(Cl)cc2)c1=O [Compound I-0769]  207 nM
17. C[C@@H](Cn1c(=O)[nH]/c(=N\c2ccc(N3CCCCCC3)cc2)n(Cc2ccc(Cl)cc2)c1=O)C(=O)O [Compound I-1235]  214 nM
18. CCn1c(=O)[nH]/c(=N\c2ccc(OCCN(C)C(C)=O)cc2)n(Cc2ccc(Cl)cc2)c1=O [Compound I-2197]  215 nM
19. COc1ccc(/N=c2\[nH]c(=O)n(C[C@H](C)C(=O)O)c(=O)n2Cc2ccc(Cl)cc2)cc1Cl [Compound I-0724]  250 nM
20. COC(=O)[C@@H](C)Cn1c(=O)[nH]/c(=N\c2ccc(OC(C)C)c(C)c2)n(Cc2ccccc2)c1=O [Compound I-0764]  254 nM
21. CCc1cc2cc(/N=c3\[nH]c(=O)n(C[C@H](C)C(=O)O)c(=O)n3Cc3ccc(Cl)cc3)ccc2s1 [Compound I-1964]  277 nM
22. COCCOc1ccc(/N=c2\[nH]c(=O)n(C[C@H](C)C(=O)O)c(=O)n2Cc2ccc(Cl)cc2)cc1 [Compound I-0748]  295 nM
23. COC(=O)[C@@H](C)Cn1c(=O)[nH]/c(=N\c2ccc3nc(C)c(C)nc3c2)n(Cc2ccc(Cl)cc2)c1=O [Compound I-1320]  365 nM
24. CCn1c(=O)[nH]/c(=N\c2ccc(OCc3nnc(C)o3)cc2)n(Cc2ccc(Cl)cc2)c1=O [Compound I-2199]  515 nM

Same assay, conditions: C6BU-1 cells stably expressing human P2X3 receptor, Fluo-3 fluorescence, FDSS 3000

In order of falling IC50:
1. C[C@@H](C(=O)O)[C@H](C)n1c(=O)[nH]/c(=N\c2ccc3c(c2)CCCC3=O)n(Cc2ccc(Cl)cc2)c1=O [Compound I-1784]  950 nM
2. C[C@@H](C(=O)O)[C@H](C)n1c(=O)[nH]/c(=N\c2ccc3c(c2)nc(-c2ccccc2)n3C)n(Cc2ccc(Cl)cc2)c1=O [Compound I-1812]  630 nM
3. COC(=O)[C@@H](C)Cn1c(=O)[nH]/c(=N\c2cccc(C3=CCCC3)c2)n(Cc2ccc(C)cc2)c1=O [Compound I-1084]  392 nM
4. COC(=O)[C@@H](C)Cn1c(=O)[nH]/c(=N\c2ccc(Br)cc2)n(Cc2ccc(C)cc2)c1=O [Compound I-1076]  177 nM
5. COC(=O)[C@@H](C)Cn1c(=O)[nH]/c(=N\c2ccc(OC(C)C)c(OC(C)C)c2)n(Cc2ccc(C)cc2)c1=O [Compound I-1130]  133 nM
6. Cc1ccc(Cn2c(=O)n(C[C@H](C)C(=O)O)c(=O)[nH]/c2=N\c2ccc(C3CCCCC3)cc2)cc1 [Compound I-1108]  50 nM
7. O=c1[nH]/c(=N\c2ccc(Oc3ccc(O)nc3)cc2)n(Cc2ccc(Cl)cc2)c(=O)n1CCO [Compound I-1789]  30 nM
8. CCOC(=O)C1(Cn2c(=O)[nH]/c(=N\c3ccc(OCC4CC4)c(Cl)c3)n(Cc3ccc(C)cc3)c2=O)CC1 [Compound I-0970]  20 nM
9. CCCOc1ccc(/N=c2\[nH]c(=O)n(CC3(C(=O)OCC)CC3)c(=O)n2Cc2ccc(Cl)cc2)cc1 [Compound I-0919]  14 nM
10. CC(=O)NCCCn1c(=O)[nH]/c(=N\c2ccc(CC(C)C)c(Cl)c2)n(Cc2ccc(Cl)cc2)c1=O [Compound I-1614]  9 nM
11. CCc1nc2ccc(/N=c3\[nH]c(=O)n(CC(N)=O)c(=O)n3Cc3ccc(Cl)cc3)cc2s1 [Compound I-1805]  5 nM
12. CCCOc1ccc(/N=c2\[nH]c(=O)n(C[C@@H](C)C(=O)OC)c(=O)n2Cc2ccc(Cl)cc2)cc1 [Compound I-1034]  5 nM
13. CCOC(=O)C1(Cn2c(=O)[nH]/c(=N\c3ccc(OC(C)C)c(C)c3)n(Cc3ccc(C)cc3)c2=O)CC1 [Compound I-0941]  5 nM
14. CCOC(=O)CCn1c(=O)[nH]/c(=N\c2ccc(OC(C)C)c(Br)c2)n(Cc2ccc(C)cc2)c1=O [Compound I-1168]  4 nM
15. O=c1[nH]/c(=N\c2ccc(Oc3ccnc(O)c3)cc2)n(Cc2ccc(Cl)cc2)c(=O)n1CCCO [Compound I-1713]  3 nM

Same assay, conditions: human P2X3 receptor, Test Example 1

In order of falling IC50:
1. CCn1c(=O)[nH]/c(=N\c2ccc(Oc3cc(C)nn3C)cc2)n(Cc2ccc(Cl)cc2)c1=O [Compound I-2367]  128 nM
2. Cc1ccc(Cn2c(=O)n(C[C@H](C)C(=O)O)c(=O)[nH]/c2=N\c2ccc(OCC(F)F)cc2)cc1 [Compound I-0849]  78 nM
3. Cc1ccc(Cn2c(=O)n(C[C@H](C)C(=O)O)c(=O)[nH]/c2=N\c2ccc(CC(C)(C)F)c(Cl)c2)cc1 [Compound I-1531]  25 nM
4. CCn1c(=O)[nH]/c(=N\c2ccc(Oc3cccc(CCC(=O)O)c3)cc2)n(Cc2ccc(Cl)cc2)c1=O [Compound I-2232]  13 nM
5. CCn1c(=O)[nH]/c(=N\c2ccc(Oc3ccnnc3)cc2)n(Cc2ccc(C)cc2)c1=O [Compound I-2599]  4 nM
6. CNC(=O)c1cc(Oc2ccc(/N=c3\[nH]c(=O)n(C4CC4)c(=O)n3Cc3ccc(Cl)cc3)cc2)ccn1 [Compound I-2309]  2 nM
7. COC(=O)CCn1c(=O)[nH]/c(=N\c2ccc(Oc3cccc(C#N)n3)cc2)n(Cc2ccc(C)cc2)c1=O [Compound I-2633]  2 nM
8. Cn1c(=O)[nH]/c(=N\c2ccc(Oc3cccc(C#N)n3)cc2)n(C[C@H]2CC[C@H](C)CC2)c1=O [Compound I-2446]  1 nM
